Measurements as given in ChEMBL document CHEMBL1201862, “PubChem BioAssay data set” (2004).
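1) Cells in 96-well plates. 2) Compound, 48 h, 5 concentrations. 3) Linear interpolation between surrounding doses. 4) Unreached endpoint = highest concentration. At the GI50, growth is halved.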 Active and inactive are the calls of the source. No stated cut-off is given here; in the data, active = GI50 up to about 1.1 µM and inactive = higher.

Experiments:
Experiment in all cases: NCI-60 cell line screen, 48 h
CCRF-CEM = system: CCRF-CEM
COLO 205 = system: COLO 205
HCT-15 = system: HCT-15
HOP-62 = system: HOP-62
HOP-92 = system: HOP-92
HT-29 = system: HT-29
MDA-N = system: MDA-N
NCI-H226 = system: NCI-H226
NCI-H23 = system: NCI-H23
OVCAR-3 = system: OVCAR-3
OVCAR-8 = system: OVCAR-8
RPMI-8226 = system: RPMI-8226
SK-MEL-28 = system: SK-MEL-28
SK-OV-3 = system: SK-OV-3
SN12C = system: SN12C
SNB-19 = system: SNB-19
CAKI-1 = system: CAKI-1
HCC 2998 = system: HCC 2998
UACC-257 = system: UACC-257

SMILES | GI50 (CCRF-CEM) | GI50 (COLO 205) | GI50 (HCT-15) [µM] | GI50 (HOP-62) | GI50 (HOP-92) | GI50 (HT-29) | GI50 (MDA-N) | GI50 (NCI-H226) | GI50 (NCI-H23) | GI50 (OVCAR-3) | GI50 (OVCAR-8) | GI50 (RPMI-8226) | GI50 (SK-MEL-28) | GI50 (SK-OV-3) | GI50 (SN12C) | GI50 (SNB-19) | GI50 (CAKI-1) | GI50 (HCC 2998) | GI50 (UACC-257)
CSC1=N/C(=C\c2ccc(Cl)cc2)C(=O)N1CN1CCOCC1 | 30.8 µM (inactive) | 28.9 µM (inactive) | 21.6 | 23.4 µM (inactive) | 0.308 µM (active) | 27.5 µM (inactive) | 47.8 µM (inactive) | 46.8 µM (inactive) | 66.8 µM (inactive) | 41.7 µM (inactive) | 21.7 µM (inactive) | 19.3 µM (inactive) | > 100 µM (inactive) | 30.6 µM (inactive) | 47.5 µM (inactive) | 31.8 µM (inactive) |  |  | 
O=[N+]([O-])c1ccccc1S(=O)(=O)c1cc(Cl)cc2c1NCCC2 | 36.1 µM (inactive) | 33.6 µM (inactive) | 65.6 | > 100 µM (inactive) | 91.2 µM (inactive) | 70.3 µM (inactive) |  | 45.5 µM (inactive) |  | > 100 µM (inactive) | > 100 µM (inactive) | 44.8 µM (inactive) | 62.8 µM (inactive) | > 100 µM (inactive) | 90.6 µM (inactive) | 65 µM (inactive) | 60.4 µM (inactive) | 20.1 µM (inactive) | 35.6 µM (inactive)
CC(=O)c1ccc(NC(=O)C(=O)C(C(=O)c2ccc(Cl)c(Cl)c2)C2OC(=O)c3ccccc32)cc1 (stereo not given) | 73.3 µM (inactive) | 15.1 µM (inactive) | 16.8 | 18.9 µM (inactive) | 24.5 µM (inactive) | 25.3 µM (inactive) |  | 5.15 µM (inactive) | 13.6 µM (inactive) | 16.9 µM (inactive) | 12.5 µM (inactive) |  |  | 59.8 µM (inactive) | 21.6 µM (inactive) | 25.5 µM (inactive) | 14.6 µM (inactive) | 13.7 µM (inactive) | 23.4 µM (inactive)
COc1ccccc1N1C(=O)/C(=C\c2ccccc2)SC1c1cc(OC)c(OC)c(OC)c1 (stereo not given) |  | 35.9 µM (inactive) | 32.3 | 46.7 µM (inactive) | 34.5 µM (inactive) | 33.3 µM (inactive) | 17.9 µM (inactive) | > 100 µM (inactive) | 43.9 µM (inactive) |  | 42 µM (inactive) |  | 54 µM (inactive) | 42.3 µM (inactive) | 17.6 µM (inactive) | 66.8 µM (inactive) | 34.2 µM (inactive) | 37.3 µM (inactive) | 83.4 µM (inactive)
CCSc1nc(N2CCOCC2)c2cn[nH]c2n1 | 60.5 µM (inactive) | 39.7 µM (inactive) | 65.5 | > 100 µM (inactive) | 48 µM (inactive) | > 100 µM (inactive) |  | > 100 µM (inactive) | 48.1 µM (inactive) | 52.1 µM (inactive) | > 100 µM (inactive) | 37.5 µM (inactive) | 88.5 µM (inactive) | 86.3 µM (inactive) | 52.5 µM (inactive) | > 100 µM (inactive) | 28.2 µM (inactive) | > 100 µM (inactive) | > 100 µM (inactive)
NC(=O)C(c1ccccc1)N1OC2C(=O)N(c3ccccc3)C(=O)C2C1c1c2ccccc2c(Cl)c2ccccc12 (stereo not given) | 61.4 µM (inactive) | > 100 µM (inactive) | > 100 | > 100 µM (inactive) | > 100 µM (inactive) | > 100 µM (inactive) | > 100 µM (inactive) | > 100 µM (inactive) | > 100 µM (inactive) | > 100 µM (inactive) | > 100 µM (inactive) | > 100 µM (inactive) | > 100 µM (inactive) | > 100 µM (inactive) | > 100 µM (inactive) | > 100 µM (inactive) | > 100 µM (inactive) |  | 
Cc1cc2ccc(N)nc2nc1O |  | > 100 µM (inactive) | > 100 |  | > 100 µM (inactive) | > 100 µM (inactive) | > 100 µM (inactive) | 51.6 µM (inactive) | > 100 µM (inactive) |  | > 100 µM (inactive) | > 100 µM (inactive) |  | > 100 µM (inactive) | > 100 µM (inactive) | > 100 µM (inactive) | > 100 µM (inactive) |  | > 100 µM (inactive)
CCc1ncnc2cc(OCC3CO3)c(OC)cc12 (stereo not given) | 0.436 µM (active) | 8.17 µM (inactive) | 3.09 | 3.18 µM (inactive) | 4.26 µM (inactive) | 4.83 µM (inactive) | 5.94 µM (inactive) | 6.49 µM (inactive) | 2.61 µM (inactive) | 11.1 µM (inactive) | 0.647 µM (active) |  | 11.7 µM (inactive) | 22.9 µM (inactive) | 1.3 µM (inactive) | 6.52 µM (inactive) | 5.06 µM (inactive) |  | 13.6 µM (inactive)
COc1ccc(N2CC(=O)N(C(=O)COc3ccc(OCC(=O)N4C(=O)CN(c5ccc(OC)cc5)C4=S)cc3)C2=S)cc1 |  | > 100 µM (inactive) | > 100 |  | > 100 µM (inactive) | 57.9 µM (inactive) | > 100 µM (inactive) | > 100 µM (inactive) | 88.1 µM (inactive) |  |  | 87.5 µM (inactive) | > 100 µM (inactive) | > 100 µM (inactive) | > 100 µM (inactive) | > 100 µM (inactive) | > 100 µM (inactive) | > 100 µM (inactive) | 48.3 µM (inactive)
N#CCCN(CCC#N)c1ccc(/C=C2\N=C(c3ccccc3)N(c3ccccn3)C2=O)cc1 | > 100 µM (inactive) | > 100 µM (inactive) | > 100 | > 100 µM (inactive) | > 100 µM (inactive) | > 100 µM (inactive) | > 100 µM (inactive) | > 100 µM (inactive) |  | > 100 µM (inactive) | > 100 µM (inactive) | > 100 µM (inactive) | > 100 µM (inactive) | > 100 µM (inactive) | > 100 µM (inactive) | > 100 µM (inactive) | > 100 µM (inactive) |  | > 100 µM (inactive)
CCOC(=O)c1nc2ccc(C(F)(F)F)cc2nc1Oc1ccc(C#N)cc1 | > 100 µM (inactive) | 27.4 µM (inactive) | 38.4 | 15.5 µM (inactive) | 17 µM (inactive) | 23.3 µM (inactive) |  | 11.3 µM (inactive) | 40.3 µM (inactive) |  | 19.6 µM (inactive) | > 100 µM (inactive) | 43.1 µM (inactive) | 15.7 µM (inactive) |  | 17.7 µM (inactive) | 20.3 µM (inactive) | 61.4 µM (inactive) | 25.5 µM (inactive)
COC(=O)C(=O)C(C(=O)C=C(C)C)C(=O)C(=O)Nc1cc(C(F)(F)F)ccc1Cl (stereo not given) | 21.3 µM (inactive) | 52.2 µM (inactive) | > 100 | > 100 µM (inactive) | > 100 µM (inactive) | > 100 µM (inactive) |  | > 100 µM (inactive) | > 100 µM (inactive) | > 100 µM (inactive) | > 100 µM (inactive) | 24.4 µM (inactive) | > 100 µM (inactive) | > 100 µM (inactive) | > 100 µM (inactive) | > 100 µM (inactive) | > 100 µM (inactive) | > 100 µM (inactive) | 70.3 µM (inactive)
Nc1ccccc1C(=O)CC1OC(=O)c2ccccc21 (stereo not given) |  |  | 86.5 | 91 µM (inactive) | > 100 µM (inactive) | > 100 µM (inactive) | 78.7 µM (inactive) | > 100 µM (inactive) |  | 78.3 µM (inactive) | 51.5 µM (inactive) | 38.1 µM (inactive) | > 100 µM (inactive) | > 100 µM (inactive) | > 100 µM (inactive) | 42.1 µM (inactive) |  |  | > 100 µM (inactive)
SCCCSCCSCCCSCCS | 31.7 µM (inactive) | > 100 µM (inactive) | > 100 | > 100 µM (inactive) |  | > 100 µM (inactive) | > 100 µM (inactive) |  | 85.9 µM (inactive) | > 100 µM (inactive) | > 100 µM (inactive) |  | > 100 µM (inactive) | > 100 µM (inactive) | > 100 µM (inactive) | > 100 µM (inactive) |  | > 100 µM (inactive) | > 100 µM (inactive)
O=S(=O)(O)c1ccc(/N=N/c2ccc(/N=N/c3c(O)ccc4ccccc34)c(S(=O)(=O)O)c2)cc1 | > 100 µM (inactive) | > 100 µM (inactive) | > 100 | > 100 µM (inactive) | > 100 µM (inactive) | > 100 µM (inactive) |  | > 100 µM (inactive) | > 100 µM (inactive) | > 100 µM (inactive) | > 100 µM (inactive) | > 100 µM (inactive) | > 100 µM (inactive) | > 100 µM (inactive) |  | > 100 µM (inactive) | > 100 µM (inactive) | > 100 µM (inactive) | > 100 µM (inactive)
COc1ccc(-c2cc(-c3ccc(Nc4ccnc5cc(C(F)(F)F)ccc45)cc3)nc(N)c2C#N)cc1 |  | > 100 µM (inactive) | 60.5 | 43.6 µM (inactive) | 26.1 µM (inactive) | > 100 µM (inactive) |  | > 100 µM (inactive) | > 100 µM (inactive) | 14.6 µM (inactive) |  | > 100 µM (inactive) | 32.5 µM (inactive) | > 100 µM (inactive) |  | 42.7 µM (inactive) | > 100 µM (inactive) | > 100 µM (inactive) | 
O=C1/C(=C/c2ccccc2)CCCc2ccccc21 | 15.7 µM (inactive) | 18.6 µM (inactive) | 16.2 | 19.2 µM (inactive) | 15.3 µM (inactive) | 17.7 µM (inactive) | 19 µM (inactive) | 18.4 µM (inactive) | 17.5 µM (inactive) | 18.4 µM (inactive) | 20.4 µM (inactive) | 16.6 µM (inactive) | 17.4 µM (inactive) | 38.2 µM (inactive) | 19.6 µM (inactive) | 14 µM (inactive) | 22.3 µM (inactive) |  | 15.7 µM (inactive)
